Results reported in patent publication US20110182916A1, “Use of Agonists of Integrin Alpha 5 for Inducing the Osteogenic Differentiation of Mesenchymal Stem Cells” (priority 2008, published 2011).
Where no end group is shown, it is not given here.

How the values were obtained:
[1] = test system: ITGA5 in primary hMSCs; test: ITGA5 mRNA expression by quantitative RT-PCR; type: cell-based, human; details: dexamethasone 10^-7 M, day 1 and 3, primary hMSCs
[2] = test system: ITGA5 in hMSCs; test: ITGA5 protein level by Western blot; type: cell-based, human; details: dexamethasone 10^-7 M
Protocol: For Western blot analysis, cells lysates were prepared as previously described (FROMIGUE et al. Cell Death Differ. 13, 1845-56, 2006). Briefly, proteins (30 μg) were resolved on 4-12% SDS-PAGE and electrotransfered onto […] membranes (Millipore Corporation, Bedford, USA). Filters were incubated at RT for 2 h in 50 mM Tris/HCl (pH 7.4), 150 mM NaCl, 0.1% (v/v) Tween-20, 0.5% (w/v) bovine serum albumin (TBST/BSA), then overnight at 4° C. on a shaker with specific primary antibodies diluted at 1/1000 in TBST/BSA: monoclonal antibody against the housekeeping gene GAPDH (Abeam Cambridge, UK), and rabbit polyclonal antibody directed against ITGA5 was Santa Cruz Biotechnology (Santa Cruz, Calif., USA). Membranes were washed twice with TBST and incubated for 2 hours with appropriate HRP-conjugated secondary antibody (1/20,000 in TBST/BSA). After final washes, the signals were visualized with enhanced chemiluminescence western blotting detection reagent (ECL, Amersham Biosciences, Piscataway, N.J., USA) and autoradiographic film (X-OMAT-AR, Eastman Kodak Company, Rochester, N.Y., USA). Densitometric analysis using ImageQuant software was performed following digital scanning (Agfa).

[3] = test system: LV-ITGA5-infected hMSCs; type: cell-based, human
Protocol: To this goal, proteins collected from hMSCs infected with LV-ITGA5 were analysed by western blot analysis.
Legend: Osteoblast differentiation by ITGA5 involves ERK1/2 signalling.

[4] = test system: clonal F/STRO1+A cells; test: ALP activity by staining in clonal cells; type: cell-based, human; details: coating with 100 μg/ml CRRETAWAC
Excerpt: F/STRO1^+A cells were derived from human fetal bone marrow stroma, selected for Stro1 antigen expression, immortalized using the large T SV40 and subsequently subcloned (OYAJOBI et al., J Bone Miner Res, 14, 351-61, 1999). This clonal human bone marrow stromal cell line express mRNA markers or protein of the osteoblast lineage (Runx2, OC, ALP, type 1 collagen), of the chondrocyte lineage (aggrecan, types 2, 9 and 10 collagen), and of the adipocyte lineage (PPARgamma2, C/EBPalpha, aP2, G3PDH, LPL, leptin) under basal conditions (AHDJOUDJ et al., J Cell Biochem, 81, 23-38, 2001).
The activity of alkaline phosphatase, an early marker of osteoblast differentiation, was determined by a colorimetric assay as previously described (FROMIGUE et al., J Cell Biochem, 104, 620-8, 2008). ALP staining was performed using Sigma FAST kit according to the manufacturer's recommendations (Sigma). Cells were fixed in 75% ethanol, rinsed in PBS and incubated with the substrate buffer at 37° C.
Legend: The synthetic cyclic peptide CRRETAWAC promotes osteoblast marker genes expression in hMSCs. A) Human MSCs were treated with CRRETAWAC at the dose of 100 μg/ml for 24 h, RNAs were collected and osteoblast markers were determined by qRT-PCR analysis. Results, after correction to 18S content, are expressed as mean±SD of treated over control ratio. […] Infection with LV-ITGA5 is shown for comparison.

[5] = test system: hMSCs; test: Osteoblast marker mRNA (Runx2, ALP, Col1A1) by quantitative RT-PCR; type: cell-based; details: CRRETAWAC 100 μg/ml, 24 h, human MSCs
Protocol: The expression of mRNA markers of the osteoblast lineage (Runx2, ALP, type 1 collagen) was evaluated by quantitative RT-PCR. Total RNAs were isolated using Trizol reagent (Laboratoires Eurobio, France) according to the manufacturer's instructions. Three μg of total RNA from each sample were reverse transcribed using MMLV reverse transcriptase and oligodT primers, at 37° C. for 90 min. The relative mRNA levels were evaluated by quantitative PCR using LightCycler Instrument (Roche Applied Science, Indianapolis Ind., USA) and SYBR Green PCR kit (ABGen, Courtabceuf, France). Triplicate reactions were carried out for each sample. Signal was normalized to 18S as internal control.

Molecule: C[C@@H]1C[C@H]2[C@@H]3CCC4=CC(=O)C=C[C@]4(C)[C@@]3(F)[C@@H](O)C[C@]2(C)[C@@]1(O)C(=O)CO [dexamethasone]
- increase of ITGA5 expression (mRNA), treated over control [1]: 2-3 fold
- increase of ITGA5 protein levels, treated over control [2]: about 1.5 fold

Molecule: N#CC(=C(/N)Sc1ccccc1N)/C(C#N)=C(\N)Sc1ccccc1N [U0126]
- increased expression of ALP induced by ITGA5 overexpression [3]: blunted
- increased expression of Col1A1 induced by ITGA5 overexpression [3]: blunted
- increased expression of Runx2 induced by ITGA5 overexpression [3]: blunted

Molecule: CRRETAWAC (also: cyclic)
- ALP activity (staining) [4]: increased
- expression of osteoblast markers (mRNA) [5]: greatly increased
